From patent US10633419B2, “Immunomodulators” (BRISTOL-MYERS SQUIBB COMPANY, priority 2014, dated 2020) come the findings set out here.

The structures appear in SMILES notation. Positions of bridges follow the written chain, without caps; N, C: chain ends. Non-standard residues stand in square brackets, D forms with d. Residues, ends and D or L forms follow the SMILES beside them. Trp(1-CH2COOH) = N[C@@H](Cc1cn(CC(=O)O)c2ccccc12)C(=O)O; Phe(3,4,5-F3) = N[C@@H](Cc1cc(F)c(F)c(F)c1)C(=O)O; d(cisHyp) = O=C(O)[C@H]1C[C@@H](O)CN1; Hyp = O=C(O)[C@@H]1C[C@@H](O)CN1; NMeF = CN[C@@H](Cc1ccccc1)C(=O)O; NMeNle = CCCC[C@H](NC)C(=O)O; NMeA = CN[C@@H](C)C(=O)O; Orn = NCCC[C@H](N)C(=O)O; Pra = C#CC[C@H](N)C(=O)O; Dap = NC[C@H](N)C(=O)O

The target of this test is T1, PD-L1 (Homo sapiens, UniProt Q9NZQ7).
T1 construct: hPDL1(19-239)-TVMV-His; made in house; host or cells: HEK293T
T1 sequence (Q9NZQ7 with tags, fused parts or gaps): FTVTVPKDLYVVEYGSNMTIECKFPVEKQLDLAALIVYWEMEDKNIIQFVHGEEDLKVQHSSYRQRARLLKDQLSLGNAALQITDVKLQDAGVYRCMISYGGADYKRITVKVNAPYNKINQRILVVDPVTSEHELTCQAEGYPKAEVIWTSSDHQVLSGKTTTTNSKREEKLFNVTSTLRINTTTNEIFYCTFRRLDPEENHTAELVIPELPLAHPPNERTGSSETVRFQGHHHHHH
Nature of the test: PD-1/PD-L1 Homogenous Time-Resolved Fluorescence (HTRF) binding assay (PD-1-Ig/PD-L1-His). The note with it: inhibition of PD-1-Ig binding to PD-L1-TVMV-His; value given as range class; read-out: HTRF IC50. Put shortly: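 Inhibitors pre-incubated 15 min with PD-L1-His (10 nM final), then PD-1-Ig (20 nM final) added for 15 min in dPBS/0.1% BSA/0.05% Tween-20. Eu-cryptate anti-Ig (1 nM) and APC anti-His (20 nM) added, 30 min equilibration, 665/620 nm HTRF ratio read.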
As to `C#CC[C@H](NC(=O)CNC(=O)[C@@H]1CSCC(=O)N[C@@H](Cc2ccc(O)cc2)C(=O)N(C)[C@@H](C)C(=O)N[C@@H](CC(=O)O)C(=O)N2CCC[C@H]2C(=O)N[C@@H](Cc2c[nH]cn2)C(=O)N[C@@H](CCCCN)C(=O)N2C[C@H](O)C[C@H]2C(=O)N[C@@H](Cc2c[nH]c3ccccc23)C(=O)N[C@@H](CCCCN)C(=O)N[C@@H](Cc2c[nH]c3ccccc23)C(=O)N(C)[C@@H](CCCC)C(=O)N(C)[C@@H](CCCC)C(=O)N[C@@H](CCC(=O)O)C(=O)N1)C(=O)N[C@@H](CC(=O)O)C(N)=O` [INT 1400B] ({CH2CO}-Y[NMeA]DPHK[Hyp]WKW[NMeNle][NMeNle]ECG[Pra]D-NH2; thioether N-14), the IC50 was 0.3 to 9.9 nM.

In the case of `C#CC[C@H](NC(=O)CNC(=O)[C@@H]1CSCC(=O)N[C@@H](Cc2ccc(O)cc2)C(=O)N(C)[C@@H](C)C(=O)N[C@@H](CC(=O)O)C(=O)N2CCC[C@H]2C(=O)N[C@@H](Cc2c[nH]cn2)C(=O)N[C@@H](CCC(N)=O)C(=O)N2C[C@H](O)C[C@H]2C(=O)N[C@@H](Cc2c[nH]c3ccccc23)C(=O)N[C@@H](CO)C(=O)N[C@@H](Cc2c[nH]c3ccccc23)C(=O)N(C)[C@@H](CCCC)C(=O)N(C)[C@@H](CCCC)C(=O)N[C@@H](CCC(=O)O)C(=O)N1)C(=O)NCC(N)=O` [INT 1400C] ({CH2CO}-Y[NMeA]DPHQ[Hyp]WSW[NMeNle][NMeNle]ECG[Pra]G-NH2; thioether N-14), the IC50 lay within 0.3 to 9.9 nM.

`C#CC[C@H](NC(=O)CNC(=O)[C@@H]1CSCC(=O)N[C@@H](Cc2ccc(O)cc2)C(=O)N(C)[C@@H](C)C(=O)N[C@@H](CC(=O)O)C(=O)N2CCC[C@H]2C(=O)N[C@@H](Cc2c[nH]cn2)C(=O)N[C@@H](CCCCN)C(=O)N2C[C@H](O)C[C@H]2C(=O)N[C@@H](Cc2c[nH]c3ccccc23)C(=O)N[C@@H](CCCCN)C(=O)N[C@@H](Cc2cn(CC(=O)O)c3ccccc23)C(=O)N(C)[C@@H](CCCC)C(=O)N(C)[C@@H](CCCC)C(=O)N[C@@H](CCC(=O)O)C(=O)N1)C(=O)NCC(N)=O` [INT 1400D] ({CH2CO}-Y[NMeA]DPHK[Hyp]WK[Trp(1-CH2COOH)][NMeNle][NMeNle]ECG[Pra]G-NH2; thioether N-14): the IC50 lay within 0.3 to 9.9 nM.

Consider `C#CC[C@H](NC(=O)CNC(=O)[C@@H]1CSCC(=O)N[C@@H](Cc2ccc(O)cc2)C(=O)N(C)[C@@H](C)C(=O)N[C@@H](CC(=O)O)C(=O)N2CCC[C@H]2C(=O)N[C@@H](Cc2c[nH]cn2)C(=O)N[C@@H](CCCCN)C(=O)N2C[C@H](O)C[C@H]2C(=O)N[C@@H](Cc2c[nH]c3ccccc23)C(=O)N[C@@H](CCCCN)C(=O)N[C@@H](Cc2cn(CC(=O)O)c3ccccc23)C(=O)N(C)[C@@H](CCCC)C(=O)N(C)[C@@H](CCCC)C(=O)N[C@@H](CCC(=O)O)C(=O)N1)C(=O)N[C@@H](CC(=O)O)C(N)=O` [INT 1400E] ({CH2CO}-Y[NMeA]DPHK[Hyp]WK[Trp(1-CH2COOH)][NMeNle][NMeNle]ECG[Pra]D-NH2; thioether N-14), for which the half-inhibitory concentration (IC50) was 0.3 to 9.9 nM.

For `C#CC[C@H](NC(=O)CNC(=O)[C@@H]1CSCC(=O)N[C@@H](Cc2ccc(O)cc2)C(=O)N(C)[C@@H](C)C(=O)N[C@@H](CC(=O)O)C(=O)N2CCC[C@H]2C(=O)N[C@@H](Cc2c[nH]cn2)C(=O)N[C@@H](CCCCN)C(=O)N2C[C@H](O)C[C@H]2C(=O)N[C@@H](Cc2c[nH]c3ccccc23)C(=O)N[C@@H](CCCCN)C(=O)N[C@@H](Cc2c[nH]c3ccccc23)C(=O)N(C)[C@@H](CCCC)C(=O)N(C)[C@@H](CCCC)C(=O)N[C@@H](CCC(=O)O)C(=O)N1)C(N)=O` [INT 1400F, ClAc-Tyr-mAla-Asp-Pro-His-Lys-Hyp-Trp-Lys-Trp-mNle-mNle-Glu-Cys-Gly-[(S)-propargylglycine]] ({CH2CO}-Y[NMeA]DPHK[Hyp]WKW[NMeNle][NMeNle]ECG[Pra]-NH2; thioether N-14), the IC50 lay in the range of 0.3 to 9.9 nM.

On to `C#CC[C@H](NC(=O)CNC(=O)[C@@H]1CSCC(=O)N[C@@H](Cc2ccc(O)cc2)C(=O)N(C)[C@@H](C)C(=O)N[C@@H](CC(=O)O)C(=O)N2CCC[C@H]2C(=O)N[C@@H](Cc2c[nH]cn2)C(=O)N[C@@H](CCC(N)=O)C(=O)N2C[C@H](O)C[C@H]2C(=O)N[C@@H](Cc2c[nH]c3ccccc23)C(=O)N[C@@H](CO)C(=O)N[C@@H](Cc2c[nH]c3ccccc23)C(=O)N(C)[C@@H](CCCC)C(=O)N(C)[C@@H](CCCC)C(=O)N[C@@H](CCC(=O)O)C(=O)N1)C(N)=O` [INT 1400H, ClAc-Tyr-mAla-Asp-Pro-His-Gln-Hyp-Trp-Ser-Trp-mNle-mNle-Glu-Cys-Gly-[(S)-propargylglycine]] ({CH2CO}-Y[NMeA]DPHQ[Hyp]WSW[NMeNle][NMeNle]ECG[Pra]-NH2; thioether N-14), for which the concentration for half-maximal inhibition (IC50) fell in the range of 0.3 to 9.9 nM.

Regarding `C#CC[C@H](NC(=O)CNC(=O)[C@@H]1CSCC(=O)N[C@@H](Cc2ccc(O)cc2)C(=O)N(C)[C@@H](C)C(=O)N[C@@H](CC(N)=O)C(=O)N2CCC[C@H]2C(=O)N[C@@H](CN)C(=O)N[C@@H](CC(C)C)C(=O)N2C[C@H](O)C[C@H]2C(=O)N[C@@H](Cc2c[nH]c3ccccc23)C(=O)N[C@@H](CO)C(=O)N[C@@H](Cc2cn(CC(=O)O)c3ccccc23)C(=O)N(C)[C@@H](CCCC)C(=O)N(C)[C@@H](CCCC)C(=O)N[C@@H](CCC(=O)O)C(=O)N1)C(N)=O` [INT 1400I, ClAc-Tyr-mAla-Asn-Pro-Dap-Leu-Hyp-Trp-Ser-[(S)-2-amino-3-(1-(carboxymethyl)-1H-indol-3-yl)propanoic acid]-mNle-mNle-E-Cys-Gly-[(S)-propargylglycine]] ({CH2CO}-Y[NMeA]NP[Dap]L[Hyp]WS[Trp(1-CH2COOH)][NMeNle][NMeNle]ECG[Pra]-NH2; thioether N-14), the concentration for half-maximal inhibition (IC50) is 10 to 99 nM.

On to `C#CC[C@H](NC(=O)CNC(=O)[C@@H]1CSCC(=O)N[C@@H](Cc2cc(F)c(F)c(F)c2)C(=O)N(C)[C@@H](Cc2ccccc2)C(=O)N(C)[C@@H](CCCC)C(=O)N2CCC[C@@H]2C(=O)N[C@@H](CC(=O)O)C(=O)N[C@@H](C(C)C)C(=O)N(C)[C@@H](Cc2ccccc2)C(=O)N[C@@H](CCCN)C(=O)N2CCC[C@@H]2C(=O)N[C@@H](Cc2c[nH]c3ccccc23)C(=O)N[C@@H](Cc2ccc(O)cc2)C(=O)N[C@@H](CC(C)C)C(=O)N1)C(N)=O` [INT 1400K, ClAc-F3Phe-mPhe-mNle-dPro-Asp-Val-mPhe-Orn-dPro-Trp-Tyr-Leu-Cys-Gly-[(S)-propargylglycine]] ({CH2CO}-[Phe(3,4,5-F3)][NMeF][NMeNle][dP]DV[NMeF][Orn][dP]WYLCG[Pra]-NH2; thioether N-13), for which the concentration for half-maximal inhibition (IC50) lay within 0.3 to 9.9 nM.

Regarding `C#CC[C@H](NC(=O)CNC(=O)[C@@H]1CSCC(=O)N[C@@H](Cc2cc(F)c(F)c(F)c2)C(=O)N(C)[C@@H](Cc2ccccc2)C(=O)N(C)[C@@H](CCCC)C(=O)N2C[C@H](O)C[C@@H]2C(=O)N[C@@H](CC(=O)O)C(=O)N[C@@H](C(C)C)C(=O)N(C)[C@@H](Cc2ccccc2)C(=O)N[C@@H](CC(=O)O)C(=O)N2CCC[C@@H]2C(=O)N[C@@H](Cc2c[nH]c3ccccc23)C(=O)N[C@@H](Cc2ccc(O)cc2)C(=O)N[C@@H](CC(C)C)C(=O)N1)C(N)=O` [INT 1400L, ClAc-F3Phe-mPhe-mNle-dHyp-Asp-Val-mPhe-Asp-dPro-Trp-Tyr-Leu-Cys-Gly-[(S)-propargylglycine]] ({CH2CO}-[Phe(3,4,5-F3)][NMeF][NMeNle][d(cisHyp)]DV[NMeF]D[dP]WYLCG[Pra]-NH2; thioether N-13), the concentration for half-maximal inhibition (IC50) lay within 10 to 99 nM.
